Measured values from patent US20130129626A1, “IN VIVO IMAGING AGENTS” (H[…] LIMITED, priority 2006, published 2013).
pKi: −log10 of the molar value.

How the values were obtained:
CCR5 = target: T1, CCR5 (Homo sapiens, UniProt P51681); test: CCR5 binding assay ([125I]-MIP-1β displacement)
T1 construct: expressed in transfected cells; host or cells: CHO-K1
Procedure: CCR5 binding assay was performed under the following conditions, according to a method that was adapted from the literature [Samson et al., J. Biol. Chem., 272, 24934-41 (1997)].
Thus, Compound 8 was incubated for 2 hours at 25° C. in 50 mM HEPES, pH7.4 containing 1 mM CaCl2, 0.5% BSA, 5 mM MgCl2 and 1% DMSO with Human recombinant CHO-K1 cells in the presence of 0.1 nM [^125I]-MIP-1β, where MIP-1β is Macrophage Inflammatory Protein 1β.

CCR1 = target: T2, CCR1 (Homo sapiens, UniProt P32246); test: CCR1 binding assay ([125I]-MIP-1α displacement)
T2 construct: expressed in transfected cells; host or cells: CHO-K1
T2 sequence (P32246 1-355): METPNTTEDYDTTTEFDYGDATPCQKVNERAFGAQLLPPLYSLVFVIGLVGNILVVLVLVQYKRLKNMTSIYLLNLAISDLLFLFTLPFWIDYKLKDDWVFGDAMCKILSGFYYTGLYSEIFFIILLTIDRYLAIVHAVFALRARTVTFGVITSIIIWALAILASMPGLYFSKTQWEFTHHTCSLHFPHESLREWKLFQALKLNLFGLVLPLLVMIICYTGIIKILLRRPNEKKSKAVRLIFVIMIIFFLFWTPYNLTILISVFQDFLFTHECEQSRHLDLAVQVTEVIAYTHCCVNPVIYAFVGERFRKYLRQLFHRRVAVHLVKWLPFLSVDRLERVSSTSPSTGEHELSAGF
Procedure: The CCR1 binding assay was performed under the following conditions, according to a method that was adapted from the literature [Ben-Baruch et al., J. Biol. Chem., 270(38), 22123-8 (1995); Pease et al., J. Biol. Chem., 273(32), 19972-6 (1998)].
Thus, Compound 8 was incubated for 3 hours at 25° C. in 50 mM HEPES, pH7.4 containing 1 mM CaCl2, 0.5% BSA, 5 mM MgCl2 and 1% DMSO with Human recombinant CHO-K1 cells in the presence of 0.02 nM [^125I]-MIP-1α. MIP-1α is Macrophage Inflammatory Protein 1α (ligand of CCR1 and CCR5).

CCR2B = target: T3, CCR2B (Homo sapiens, UniProt P41597); test: CCR2B binding assay ([125I]-MCP-1 displacement)
T3 construct: expressed in transfected cells; host or cells: CHO-K1
T3 sequence (P41597 1-360 isoform P41597-2): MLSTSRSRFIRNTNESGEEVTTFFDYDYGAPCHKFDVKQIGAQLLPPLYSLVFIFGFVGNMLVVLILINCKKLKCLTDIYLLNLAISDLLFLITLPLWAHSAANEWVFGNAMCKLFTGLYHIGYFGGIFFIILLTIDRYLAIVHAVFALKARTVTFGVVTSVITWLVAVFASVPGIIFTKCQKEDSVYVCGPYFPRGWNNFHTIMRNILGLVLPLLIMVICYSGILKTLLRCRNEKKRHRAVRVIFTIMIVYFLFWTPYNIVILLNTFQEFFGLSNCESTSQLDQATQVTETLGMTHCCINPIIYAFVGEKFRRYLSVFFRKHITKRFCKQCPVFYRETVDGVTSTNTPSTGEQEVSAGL
Procedure: CCR2B binding assay was performed under the following conditions, according to a method that was adapted from the literature [Gong et al., J. Biol. Chem., 272, 11682-5 (1997); Moore et al., J. Leukoc. Biol., 62, 911-5 (1997)].
Thus, Compound 8 was incubated for 1 hour at 25° C. in 25 mM HEPES, pH7.4 containing 1 mM CaCl2, 0.5% BSA, 5 mM MgCl2, 0.1% NaN3 and 1% DMSO with Human recombinant CHO-K1 cells in the presence of 0.1 nM [^125I]-MCP-1. MCP-1 is monocyte chemoattractant protein (the ligand of CCR2).

[1] = Parallel Artificial Membrane Permeability Assay (PAMPA); assay type: in vitro ADME; conditions: prediction of blood brain barrier penetration by passive diffusion, high Pe>4.0×10^-06, low Pe<2.0×10^-06 cm/sec
Procedure: The permeability of the CCR compounds was measured in a Parallel Artificial Membrane Permeability Assay (PAMPA) which gives a prediction of the blood brain barrier penetration by passive diffusion [Di et al, Eur. J. Med. Chem., 38(3), 223-232 (2003)].
The commonly accepted classification ranges for this PAMPA assay are as follows: • High predicted passive BBB permeation: Pe>4.0×10^−06 cm/sec. • Low predicted passive BBB permeation: Pe<2.0×10^−06 cm/sec.
Uncertain prediction of BBB permeation: 2.0×10^−06 cm/sec<Pe<4.0×10^−06 cm/sec.

T1 sequence (P51681 whole entry): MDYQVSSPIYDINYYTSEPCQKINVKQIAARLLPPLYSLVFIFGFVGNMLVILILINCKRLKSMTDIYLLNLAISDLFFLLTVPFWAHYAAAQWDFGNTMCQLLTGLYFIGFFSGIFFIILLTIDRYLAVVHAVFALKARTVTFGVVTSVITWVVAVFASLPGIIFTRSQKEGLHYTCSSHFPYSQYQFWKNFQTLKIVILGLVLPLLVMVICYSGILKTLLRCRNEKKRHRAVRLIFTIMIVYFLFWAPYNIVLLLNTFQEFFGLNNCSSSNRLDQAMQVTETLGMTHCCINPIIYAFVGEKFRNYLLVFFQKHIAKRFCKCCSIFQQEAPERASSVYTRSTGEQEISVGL

Cc1ccc(N(CCCN2CCC(Cc3ccc(F)cc3)CC2)C(=O)C2CCN(C(=O)CF)CC2)cc1Cl [Compound 8]
pKi (CCR5): 9.10 | selectivity for CCR5 over CCR1 and CCR2B (in words) (CCR5; compared with CCR1 and CCR2B binding at 10 μM): selective for CCR5 | CCR5 binding (in words) (CCR5; summary statement of Example 6): high affinity | inhibition at 10 µM (CCR1; 10 μM Compound 8, Human recombinant CHO-K1 cells, 0.02 nM [125I]-MIP-1α, 3 hours at 25° C.): 32% | CCR1 binding (in words) (CCR1; summary statement of Example 6): does not bind | inhibition of the binding of MCP-1 to CCR2B (CCR2B; 10 μM concentration, Human recombinant CHO-K1 cells, 0.1 nM [125I]-MCP-1, 1 hour at 25° C.): did not inhibit | CCR2B binding (in words) (CCR2B; summary statement of Example 6): does not bind | Papp [1]: 6.8 ×10⁻⁶ cm/s
